Assay [1] relates to GFP-RAD52 foci in PE01 C4-2 cells. Put plainly: Radiation-induced GFP-RAD52 foci formation. To be noted: 3 nM pre-treatment, 15 Gy X-ray. It is filed as cell-based, human. On the procedure: Cells without mitoxantrone and radiation (labeled C) were controls. The average percent of cells with foci (more than 5 foci per cell) are graphed from three independent experiments. More than 30 cells per experiment were analyzed. Error bars represent standard deviation.
Each cell line was seeded on a coverslip at 10^5 cells per well in a 24-well plate. After the 24 hour incubation, the cells were pre-incubated with mitoxantrone for 2 hours, then irradiated with X-ray at 15 Gy with the RS-2000 Irradiator. After 2~ 8 hours of the irradiation, the cells were fixed in 10% formaldehyde solution at room temperature for 30 min, followed by 10 min incubation in PBS containing 0.5% Triton X-100. After staining with 1 μg/ml H1399 Hoechst dye solution, each coverslip was mounted on a slide. GFP proteins were detected with a Zeiss 710 Confocal Laser Scanning Microscope, and images were processed using Zeiss ZEN software. A cell contained more than 5 foci was considered as positive.

Assay [2] has as its system PARPi-resistant UWB1.289.SYr12 cells. As to the kind of experiment: Cell viability assay (PrestoBlue, 72 h), UWB1.289.SYr12. It is filed as cell-based. To be noted: Homo sapiens, estimated from the graphs. From the text:
BRCA1-deficient UWB1.289 cells corrected with wild-type BRCA1 gene (BRCA1+; closed triangle) and parental BRCA1-deficient UWB1.289 (BRCA1-; closed circle). Two PARPi-resistant cell lines derived from UWB1.289, UWB1.289.SYr12 (closed diamond) and UWB1.SYr13 (X), were also examined.
UWB1.289 (a gift from Dr. Lee Zou, Harvard Medical School, Boston, MA) were derived from a serous ovarian carcinoma with a germline BRCA1 mutation and a deletion of the wild-type allele. […] Two PARP-resistant cell lines, SYr12 and SYr13, were derived from the UWB1.289. The Mammary Epithelial growth media, along with SupplementMix solution for UWB1 cell lines, were obtained from PromoCell GmbH and mixed as described.
Cells were seeded 5 x 10^3 cells per well in 96-well plates in a 90 μL volume per well one day before treatment. Cells in 96-well plates were incubated with increasing concentrations of the compound or vehicle control (1% DMSO) for 72 hours. Each treatment plate contained nine concentrations of a compound in sextuplicate. Growth inhibition was determined using PrestoBlue reagent (Life Technologies, #A13261). Fluorescent measurements were taken using a Spectramax M5 plate reader (MDS). To assess cells’ replication in the absence of compounds as a control, six wells on each plate were treated with vehicle to be read in triplicate at the initial treatment day (T0) and at 72-hour read (T100).

SMILES strings stand for the structures.

The values that follow come from article PMC8009417, “Selective killing of homologous recombination-deficient cancer cell lines by inhibitors of the RPA:RAD52 protein-protein interaction” (PLoS ONE, 2021).

One may read the EC50 as the concentration giving half of the maximal effect.

For `O=C1c2c(O)ccc(O)c2C(=O)c2c(NCCNCCO)ccc(NCCNCCO)c21` [Mitoxantrone, mitoxantrone], the “Effect on radiation-induced RAD52 foci formation” value in assay [1] is “inhibited the radiation-induced RAD52 foci formation”. Further, the EC50 in assay [2] is 2400 nM.
